“And” between values parts separate entries of the source, which are not always exact repeats. Equal entries are not always repeated. Inconclusive results and toxic doses are left out.

For the experiment, the system named is P388 leukemia ip, CD2F1 mice, survival T/C. As to the kind of experiment: NCI In Vivo Anticancer Drug Screen. Data for tumor model P388 Leukemia (intraperitoneal) in CD2F1 (CDF1) mice. Conditions: endpoint: median survival time, higher = longer survival. In a few lines: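 Mice carrying the transplanted tumor received test compound or vehicle. Survival was recorded in each group, and the value is the treated-group measurement divided by that of the vehicle-treated control group.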

[1] abbreviates: dose: 100.0 mg/kg/injection, schedule: Q04DX003 (ip), vehicle: saline with Tween-80.
Setting [2] is: dose: 200.0 mg/kg/injection, schedule: Q04DX003 (ip), vehicle: saline with Tween-80.
[3] abbreviates: dose: 400.0 mg/kg/injection, schedule: Q04DX003 (ip), vehicle: saline with Tween-80.
[4] abbreviates: dose: 50.0 mg/kg/injection, schedule: Q01DX005 (ip), vehicle: saline with Tween-80.
Where [5] appears, read: dose: 100.0 mg/kg/injection, schedule: Q01DX005 (ip), vehicle: saline with Tween-80.
[6] abbreviates: dose: 200.0 mg/kg/injection, schedule: Q01DX005 (ip), vehicle: saline with Tween-80.
Where [7] appears, read: dose: 50.0 mg/kg/injection, schedule: Q01DX009 (ip), vehicle: saline.
The mark [8] stands for this setting: dose: 100.0 mg/kg/injection, schedule: Q01DX009 (ip), vehicle: saline.
Setting [9] is: dose: 200.0 mg/kg/injection, schedule: Q01DX009 (ip), vehicle: saline.
Setting [10] is: dose: 25.0 mg/kg/injection, schedule: Q01DX009 (ip), vehicle: water.
[11] abbreviates: dose: 50.0 mg/kg/injection, schedule: Q01DX009 (ip), vehicle: water.
Setting [12] is: dose: 100.0 mg/kg/injection, schedule: Q01DX009 (ip), vehicle: water.
The mark [13] stands for this setting: dose: 200.0 mg/kg/injection, schedule: Q01DX009 (ip), vehicle: water.

Regarding `Cc1nc(C(N)=O)c(=O)[nH]c1C`, the T/C is 100 % of control (dose: 33.0 mg/kg/injection, schedule: Q04DX003 (ip), vehicle: saline); 100 % of control (dose: 50.0 mg/kg/injection, schedule: Q04DX003 (ip), vehicle: saline); 100 % of control (dose: 75.0 mg/kg/injection, schedule: Q04DX003 (ip), vehicle: saline); 100 % of control under setting [1]; 106 % of control under setting [2]; 106 % of control under setting [3].
With `O=C1Nc2ccccc2/C1=N/N=c1\scc(-c2ccc(Br)cc2)n1-c1ccc(Cl)cc1`, the T/C is, setting by setting: (dose: 50.0 mg/kg/injection, schedule: Q01DX001 (ip), vehicle: saline with Tween-80) 93 % of control; (dose: 100.0 mg/kg/injection, schedule: Q01DX001 (ip), vehicle: saline with Tween-80) 99 % of control; (dose: 200.0 mg/kg/injection, schedule: Q01DX001 (ip), vehicle: saline with Tween-80) 89 % of control and 94 % of control.
Consider `Cc1ccccc1N1C(=O)C(C)(C)OC1=S`, for which the T/C runs as follows: under setting [4], 97 % of control; under setting [5], 99 % of control; under setting [6], 103 % of control.
In the case of `CC12OC1C(=O)C=CC2=O` (centres undefined), the T/C (dose: 5.0 mg/kg/injection, schedule: Q04DX002 (ip), vehicle: saline with Tween-80) was 111 % of control.
In the case of `COc1ccc2c(ccc3c(N)ncnc32)c1`, the T/C is, setting by setting: (dose: 100.0 mg/kg/injection, schedule: Q04DX002 (ip), vehicle: saline with Tween-80) 92 % of control; (dose: 200.0 mg/kg/injection, schedule: Q04DX002 (ip), vehicle: saline with Tween-80) 103 % of control.
With `O=C(CSc1nc(-c2ccccc2)c(-c2ccccc2)o1)N1CCCCC1`, the T/C was 93 % of control under setting [7], 110 % of control under setting [8] and 110 % of control under setting [9].
In the case of `COC(=O)c1[nH]cc2ccccc12`, the T/C was 98 % of control under setting [1], 104 % of control under setting [2] and 102 % of control under setting [3].
For `O=C1c2sccc2C2C1N2C(=O)C(F)(F)F` (centres undefined), the T/C by setting is: under setting [4], 95 % of control; under setting [5], 98 % of control; under setting [6], 104 % of control.
As for `NCC(=O)OCN1C(=O)C2C3C=CC(C2C1=O)C1C2C(=O)N(COC(=O)CN)C(=O)C2C31` (centres undefined), the T/C runs as follows: (dose: 6.25 mg/kg/injection, schedule: Q01DX009 (ip), vehicle: water) 109 % of control; (dose: 12.5 mg/kg/injection, schedule: Q01DX009 (ip), vehicle: water) 104 % of control; under setting [10], 104 % of control and 109 % of control; (dose: 25.75 mg/kg/injection, schedule: Q01DX009 (ip), vehicle: water) 112 % of control; under setting [11], 99 % of control and 115 % of control and 116 % of control; (dose: 51.5 mg/kg/injection, schedule: Q01DX009 (ip), vehicle: water) 121 % of control. For the same compound, the T/C is 118 % of control under setting [12]; 203 % of control (dose: 103.0 mg/kg/injection, schedule: Q01DX009 (ip), vehicle: water); 91 % of control under setting [13]; 173 % of control (dose: 400.0 mg/kg/injection, schedule: Q01DX009 (ip), vehicle: water).
As for `CCOC(=O)c1c(C)c2c(n1C)CCc1cn[nH]c1-2`, the T/C (dose: 25.0 mg/kg/injection, schedule: Q01DX009 (ip), vehicle: Klucel (hydroxypropylcellulose) (HPC)) was 99 % of control; the T/C (dose: 50.0 mg/kg/injection, schedule: Q01DX009 (ip), vehicle: Klucel (hydroxypropylcellulose) (HPC)) was 105 % of control; the T/C (dose: 100.0 mg/kg/injection, schedule: Q01DX009 (ip), vehicle: Klucel (hydroxypropylcellulose) (HPC)) is 107 % of control; the T/C (dose: 200.0 mg/kg/injection, schedule: Q01DX009 (ip), vehicle: Klucel (hydroxypropylcellulose) (HPC)) was 107 % of control; the T/C (dose: 400.0 mg/kg/injection, schedule: Q01DX009 (ip), vehicle: Klucel (hydroxypropylcellulose) (HPC)) was 98 % of control; the T/C (dose: 600.0 mg/kg/injection, schedule: Q01DX009 (ip), vehicle: Klucel (hydroxypropylcellulose) (HPC)) was 98 % of control.
With `CCOC(=O)C(CC)CO` (centres undefined), the T/C is, setting by setting: under setting [7], 101 % of control; under setting [8], 100 % of control; under setting [9], 101 % of control.
Take `CCCCCn1c(Cl)c(/C=N\Nc2cccc([N+](=O)[O-])c2)c2ccccc21`: the T/C under setting [1] is 100 % of control, the T/C under setting [2] was 91 % of control and the T/C under setting [3] is 90 % of control.
`O=C1NC(=O)[C@H]2C3C=CC([C@@H]12)[C@@H]1C(=O)NC(=O)[C@H]31`: the T/C is 105 % of control under setting [10], 100 % of control under setting [11], 97 % of control under setting [12] and 92 % of control under setting [13].
For `CC1(C)OC(=O)N=C1c1ccc(Br)cc1`, the T/C was 100 % of control (dose: 60.0 mg/kg/injection, schedule: Q01DX005 (ip), vehicle: Klucel (hydroxypropylcellulose) (HPC)) and 104 % of control (dose: 120.0 mg/kg/injection, schedule: Q01DX005 (ip), vehicle: Klucel (hydroxypropylcellulose) (HPC)).
For `CCCOc1cc2c(cc1C(C)c1ccc(OCC)c(C)c1)OCO2` (centres undefined), the T/C by setting is: (dose: 30.0 mg/kg/injection, schedule: Q01DX005 (ip), vehicle: saline with Tween-80) 100 % of control; (dose: 60.0 mg/kg/injection, schedule: Q01DX005 (ip), vehicle: saline with Tween-80) 103 % of control; (dose: 120.0 mg/kg/injection, schedule: Q01DX005 (ip), vehicle: saline with Tween-80) 106 % of control; (dose: 240.0 mg/kg/injection, schedule: Q01DX005 (ip), vehicle: saline with Tween-80) 116 % of control.
Turning to `COc1ccccc1/C(=N/[N+](C)(C)C)C(C)C`, the T/C was 100 % of control (dose: 6.25 mg/kg/injection, schedule: Q04DX002 (ip), vehicle: saline); 100 % of control (dose: 12.5 mg/kg/injection, schedule: Q04DX002 (ip), vehicle: saline); 93 % of control (dose: 25.0 mg/kg/injection, schedule: Q04DX002 (ip), vehicle: saline).

Values taken from PubChem BioAssay AID330 (DTP/NCI, 2004).
